In patent US10526327B2, “Histone demethylase inhibitors” (CELGENE QUANTICEL RESEARCH, INC., priority 2013, dated 2020):

What was measured:
Jarid1A = target: T1, Jarid1A (Homo sapiens, UniProt P29375); experiment: Jarid1A in vitro enzyme inhibition assay (TR-FRET); type: biochemical
T1 construct: purchased BPS Bioscience 50110
T1 sequence (P29375 1-1090): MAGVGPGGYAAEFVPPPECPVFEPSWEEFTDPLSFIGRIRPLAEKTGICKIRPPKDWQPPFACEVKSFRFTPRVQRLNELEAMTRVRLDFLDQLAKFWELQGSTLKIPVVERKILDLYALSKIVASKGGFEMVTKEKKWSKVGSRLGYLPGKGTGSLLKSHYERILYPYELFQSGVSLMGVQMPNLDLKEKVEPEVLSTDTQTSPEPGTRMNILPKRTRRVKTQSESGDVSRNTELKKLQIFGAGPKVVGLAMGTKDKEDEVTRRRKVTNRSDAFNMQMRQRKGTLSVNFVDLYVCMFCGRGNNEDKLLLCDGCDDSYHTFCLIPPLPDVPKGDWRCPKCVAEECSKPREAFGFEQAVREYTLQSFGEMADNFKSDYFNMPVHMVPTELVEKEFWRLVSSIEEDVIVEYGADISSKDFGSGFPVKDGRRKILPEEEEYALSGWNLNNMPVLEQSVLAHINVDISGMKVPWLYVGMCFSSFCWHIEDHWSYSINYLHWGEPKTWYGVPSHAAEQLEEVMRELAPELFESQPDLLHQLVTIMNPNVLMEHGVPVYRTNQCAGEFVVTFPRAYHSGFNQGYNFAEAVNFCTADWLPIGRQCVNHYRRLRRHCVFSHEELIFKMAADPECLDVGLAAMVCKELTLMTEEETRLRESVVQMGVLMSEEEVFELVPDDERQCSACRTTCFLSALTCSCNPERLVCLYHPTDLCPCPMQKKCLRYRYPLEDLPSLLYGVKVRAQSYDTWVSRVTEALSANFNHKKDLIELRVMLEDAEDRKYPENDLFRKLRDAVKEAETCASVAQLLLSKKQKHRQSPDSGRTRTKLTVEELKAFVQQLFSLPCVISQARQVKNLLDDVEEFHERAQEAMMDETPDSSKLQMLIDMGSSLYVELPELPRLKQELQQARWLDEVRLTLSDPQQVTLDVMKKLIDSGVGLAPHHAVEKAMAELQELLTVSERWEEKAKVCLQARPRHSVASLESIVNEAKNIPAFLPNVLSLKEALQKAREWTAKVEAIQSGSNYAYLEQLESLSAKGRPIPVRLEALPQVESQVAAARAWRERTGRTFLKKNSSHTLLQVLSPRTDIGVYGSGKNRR
Source text: This assay determines the ability of a test compound to inhibit Jarid1A, Jarid1B, and JMJD2C demethylase activity. Baculovirus expressed Jarid1A (GenBank Accession #NM_001042603, AA1-1090) was purchased from BPS Bioscience (Cat#50110). Baculovirus expressed Jarid1B (GenBank Accession #NM_006618, AA 2-751) was purchased from BPS Bioscience (Cat #50121) or custom made by MolecularThroughput. Baculovirus expressed JMJD2C (GenBank Accession #BC143571, AA 2-372) was purchased from BPS Bioscience (Cat#50105).
The enzymatic assay of Jarid1A activity is based upon Time Resolved-Fluorescence Resonance Energy Transfer (TR-FRET) detection. The ability of test compounds to inhibit the activity of Jarid1A was determined in 384-well plate format under the following reaction conditions: 1 nM Jarid1A, 300 nM H3K4me3-biotin labeled peptide (Anaspec cat #64357), 2 μM alpha-ketoglutaric acid in assay buffer of 50 mM HEPES, pH7.3, 0.005% Brij35, 0.5 mM TCEP, 0.2 mg/ml BSA, 50 μM sodium L-ascorbate, and 2 μM ammonium iron(II) sulfate. Reaction product was determined quantitatively by TR-FRET after the addition of detection reagent Phycolink Streptavidin-allophycocyanin (Prozyme) and Europium-anti-mono-or di-methylated histone H3 lysine 4 (H3K4me1-2) antibody (PerkinElmer) in the presence of 5 mM EDTA in LANCE detection buffer (PerkinElmer) at a final concentration of 25 nM and 1 nM, respectively.
The assay reaction was initiated by the following: 2 μl of the mixture of 900 nM H3K4me3-biotin labeled peptide and 6 μM alpha-ketoglutaric acid with 2 μl of 11-point serial diluted inhibitor in 3% DMSO was added to each well of plate, followed by the addition of 2 μl of 3 nM Jarid1A to initiate the reaction. The reaction mixture was incubated at room temperature for 30 minutes, and terminated by the addition of 6 μl of 5 mM EDTA in LANCE detection buffer containing 50 nM Phycolink Streptavidin-allophycocyanin and 2 nM Europium-anti-H3K4me1-2 antibody. Plates were read by EnVisionMultilabel Reader in TR-FRET mode (excitation at 320 nm, emission at 615 nm and 665 nm) after 1 hour incubation at room temperature. A ratio was calculated (665/615) for each well and fitted to determine inhibition constant (IC50).

KDM5A/B = experiment: In vitro cell-based assay: immuno-blot quantification of tri-methyl H3K4 in ZR-75-1 breast cancer cells; details: 72 hours, tri-methyl H3K4 level relative to GAPDH, percent of DMSO, read-out: Cellular IC50
Source text: An assay to measure the degree of cellular inhibition of KDM5A and 5B was developed. This quantitative immuno-blotting assay measures the amount tri-methylated histone H3 at amino acid Lysine number 4, a specific substrate […] of the direct enzymatic activity of the histone demethylases KDM5A and KDM5B from extracts of the ZR-75-1 breast cancer cell line.
This assay is a fluorometric immunoassay for the quantification of tri-methyl H3K4 extracted from cells treated with test compound and is used as a measure of the cellular inhibition of KDM5A/B.
ZR-75-1 (PTEN null, ER+) breast cancer cells numbering 50,000 (ATCC) were seeded into each well of a 96-well tissue culture treated plate and then exposed to an 11 point dilution of test compound with final concentration ranges of test compound ranging from 1250 μM to 10 nM. Cells were left in the presence of test compound for 72 hours. Extracts were prepared containing all of the cellular histone material using detergent based lysis and sonication methods. These lysates were subsequently normalized for total protein content using a colorimetric bicinchonic acid assay (MicroBCA Pierce/Thermo Scientific). Normalized cell extracts were then subjected to typical immuno-blotting procedures using NuPage reagents (Life Technologies). Electrophoretically separated histones were then transferred and immobilized using polyvinylidene difluoride membrane (Immobilon-FL Millipore). The amount of tri-methylated lysine 4 of histone H3 was detected using an antibody specific to the tri-methylated state (Cell Signaling Technologies) and quantified on an infrared imager using a densitometry software package (Odyssey CLx, Image Studio, Li-Cor). This background subtracted densitometry value was reported as a ration of the GAPDH amount for that sample and then calculated as a percent of the DMSO treated sample. The software package XL-fit (IDBS) was then used to calculate a relative IC50 value for the dilution series of a given test compound according to the equation: fit=(D+((Vmax*(x^n))/((x^n)+(Km^n)))).

SMILES: Oc1nc(OCc2ccccc2)nc2cnccc12 [Example 4, 2-phenylmethoxypyrido[3,4-d]pyrimidin-4-ol]
- IC50 (Jarid1A): 0.1 to 1 µM
- IC50 (KDM5A/B): 1 to 10 µM

SMILES: Oc1nc(OCC2CC2)nc2cnccc12 [Example 5, 2-(cyclopropylmethoxy)-3H-pyrido[3,4-d]pyrimidin-4-one]
- IC50 (Jarid1A): ≤ 0.1 µM
- IC50 (KDM5A/B): > 10 µM

SMILES: CCCOc1nc(O)c2ccncc2n1 [Example 7, 2-propoxy-3H-pyrido[3,4-d]pyrimidin-4-one]
- IC50 (Jarid1A): ≤ 0.1 µM
- IC50 (KDM5A/B): > 10 µM

SMILES: Oc1nc(OCCOc2ccccc2)nc2cnccc12 [Example 10, 2-(2-phenoxyethoxy)-3H-pyrido[3,4-d]pyrimidin-4-one]
- IC50 (Jarid1A): ≤ 0.1 µM
- IC50 (KDM5A/B): > 10 µM

SMILES: Oc1nc(OCC2CCC2)nc2cnccc12 [Example 11, 2-(cyclobutylmethoxy)-3H-pyrido[3,4-d]pyrimidin-4-one]
- IC50 (Jarid1A): 0.1 to 1 µM
- IC50 (KDM5A/B): > 10 µM

SMILES: Oc1nc(OCC(F)(F)F)nc2cnccc12 [Example 12, 2-(2,2,2-trifluoroethoxy)pyrido[3,4-d]pyrimidin-4-ol]
- IC50 (Jarid1A): ≤ 0.1 µM
- IC50 (KDM5A/B): > 10 µM

SMILES: CC(=O)Nc1ccc(Oc2nc(O)c3ccncc3n2)cc1 [Example 35, N-[4-(4-hydroxypyrido[3,4-d]pyrimidin-2-yl)oxyphenyl]acetamide]
- IC50 (Jarid1A): ≤ 0.1 µM
- IC50 (KDM5A/B): 1 to 10 µM

SMILES: Oc1nc(Oc2ccc(F)c(F)c2)nc2cnccc12 [Example 37, 2-(3,4-difluorophenoxy)pyrido[3,4-d]pyrimidin-4-ol]
- IC50 (Jarid1A): ≤ 0.1 µM
- IC50 (KDM5A/B): > 10 µM

SMILES: Oc1nc(Oc2cccc(F)c2)nc2cnccc12 [Example 40, 2-(3-fluorophenoxy)pyrido[3,4-d]pyrimidin-4-ol]
- IC50 (Jarid1A): ≤ 0.1 µM
- IC50 (KDM5A/B): > 10 µM

SMILES: Oc1nc(Oc2cccc(Cl)c2)nc2cnccc12 [Example 41, 2-(3-chlorophenoxy)pyrido[3,4-d]pyrimidin-4-ol]
- IC50 (Jarid1A): ≤ 0.1 µM
- IC50 (KDM5A/B): > 10 µM

SMILES: COc1cccc(Oc2nc(O)c3ccncc3n2)c1 [Example 44, 2-(3-methoxyphenoxy)pyrido[3,4-d]pyrimidin-4-ol]
- IC50 (Jarid1A): ≤ 0.1 µM
- IC50 (KDM5A/B): > 10 µM

SMILES: CCOc1c(F)cc(Oc2nc(O)c3ccncc3n2)cc1F [Example 45, 2-(4-ethoxy-3,5-difluorophenoxy)pyrido[3,4-d]pyrimidin-4-ol]
- IC50 (Jarid1A): ≤ 0.1 µM
- IC50 (KDM5A/B): > 10 µM

SMILES: Oc1nc(Oc2ccc(F)cc2)nc2cnccc12 [Example 47, 2-(4-fluorophenoxy)pyrido[3,4-d]pyrimidin-4-ol]
- IC50 (Jarid1A): ≤ 0.1 µM
- IC50 (KDM5A/B): > 10 µM

SMILES: COc1ccc(Oc2nc(O)c3ccncc3n2)cc1 [Example 48, 2-(4-methoxyphenoxy)pyrido[3,4-d]pyrimidin-4-ol]
- IC50 (Jarid1A): ≤ 0.1 µM
- IC50 (KDM5A/B): > 10 µM

SMILES: Oc1nc(Oc2ccc(Cl)cc2)nc2cnccc12 [Example 49, 2-(4-chlorophenoxy)pyrido[3,4-d]pyrimidin-4-ol]
- IC50 (Jarid1A): ≤ 0.1 µM
- IC50 (KDM5A/B): > 10 µM

SMILES: CN(C)c1cccc(Oc2nc(O)c3ccncc3n2)c1 [Example 50, 2-[3-(dimethylamino)phenoxy]pyrido[3,4-d]pyrimidin-4-ol]
- IC50 (Jarid1A): ≤ 0.1 µM
- IC50 (KDM5A/B): > 10 µM

SMILES: Oc1nc(Oc2cccc(C(F)(F)F)c2)nc2cnccc12 [Example 52, 2-[3-(trifluoromethyl)phenoxy]pyrido[3,4-d]pyrimidin-4-ol]
- IC50 (Jarid1A): ≤ 0.1 µM
- IC50 (KDM5A/B): 1 to 10 µM

SMILES: COc1ccc(Oc2nc(O)c3ccncc3n2)cc1F [Example 53, 2-(3-fluoro-4-methoxyphenoxy)pyrido[3,4-d]pyrimidin-4-ol]
- IC50 (Jarid1A): ≤ 0.1 µM
- IC50 (KDM5A/B): 1 to 10 µM

SMILES: CCCn1cc(Oc2nc(O)c3ccncc3n2)cn1 [Example 54, 2-(1-propylpyrazol-4-yl)oxypyrido[3,4-d]pyrimidin-4-ol]
- IC50 (Jarid1A): ≤ 0.1 µM
- IC50 (KDM5A/B): 1 to 10 µM

SMILES: CC(C)CCn1cc(Oc2nc(O)c3ccncc3n2)cn1 [Example 55, 2-{[1-(3-methylbutyl)pyrazol-4-yl]oxy}pyrido[3,4-d]pyrimidin-4-ol]
- IC50 (Jarid1A): ≤ 0.1 µM
- IC50 (KDM5A/B): 1 to 10 µM

SMILES: Oc1nc(Oc2cnn(C3CCCC3)c2)nc2cnccc12 [Example 56, 2-[(1-cyclopentylpyrazol-4-yl)oxy]pyrido[3,4-d]pyrimidin-4-ol]
- IC50 (Jarid1A): ≤ 0.1 µM
- IC50 (KDM5A/B): 1 to 10 µM
